In ChEMBL document CHEMBL1132641, “Structure-activity relationships for a class of inhibitors of purine nucleoside phosphorylase” (J Med Chem, 1999):

Key:
Test in all cases: biochemical
[1] = biological target: T1, Purine nucleoside phosphorylase (Bos taurus, UniProt P55859)
T1 sequence (P55859 whole entry): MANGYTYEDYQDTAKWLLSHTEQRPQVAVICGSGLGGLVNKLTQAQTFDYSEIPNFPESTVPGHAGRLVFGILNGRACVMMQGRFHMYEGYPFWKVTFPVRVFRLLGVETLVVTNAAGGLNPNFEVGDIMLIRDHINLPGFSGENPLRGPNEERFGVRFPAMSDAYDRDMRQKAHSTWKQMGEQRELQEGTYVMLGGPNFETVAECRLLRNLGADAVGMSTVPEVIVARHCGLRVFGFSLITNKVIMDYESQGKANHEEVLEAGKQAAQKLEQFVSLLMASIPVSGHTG
Description: (§1) Inhibitory activity against calf spleen purine nucleoside phosphorylase (PNP) using inosine as substrate at a concentration of 10 uM.

[2] = biological target: T1, Purine nucleoside phosphorylase; remark: listed apart in the source
Description: as §1

[3] = biological target: T1, Purine nucleoside phosphorylase; remark: listed apart in the source
Description: Inhibitory activity against calf spleen purine nucleoside phosphorylase (PNP) using 2-amino-6-mercapto-7-methyl purine ribonucleoside (MESG) as substrate.

| SMILES | IC50 [1] [µM] | Ki [2] [µM] | Ki [3] [µM] |
| --- | --- | --- | --- |
| Oc1[nH]cnc2c(Cc3ccccc3)cnc1-2 | 0.0245 | 0.0187 | 0.0054 |
| Nc1nc2c(Cc3cccnc3)c[nH]c2c(=O)[nH]1 [PELDESINE] | 0.027 | 0.0135 | 0.0031 |
| Nc1nc2c(CC3CCCS3)c[nH]c2c(=O)[nH]1 (centres undefined) | 0.0174 | 0.0085 | 0.006 |
| N#CCC(c1cccc(Cl)c1)c1c[nH]c2c(=O)[nH]c(N)nc12 (centres undefined) | 0.0163 | – | 0.0046 |
| Nc1nc2c(Cc3cnccc3Cl)c[nH]c2c(=O)[nH]1 | 0.135 | 0.0667 | 0.0356 |
| CC1CCCC(Cc2c[nH]c3c(=O)[nH]c(N)nc23)C1 (centres undefined) | 0.0192 | 0.0114 | 0.0033 |
| Nc1nc2c(CC3CCCC3)c[nH]c2c(=O)[nH]1 | 0.0202 | 0.0091 | 0.0062 |
| Nc1nc(O)c2[nH]c(N)c(CC3CCCCC3)c2n1 | 1.47 | 0.885 | 0.766 |
| Nc1nc(O)c2[nH]cc(C3CCCCC3)c2n1 | 0.64 | 0.335 | 0.333 |
| Nc1nc2c(Cc3cccc(Cl)c3)c[nH]c2c(=O)[nH]1 | 0.0258 | 0.0189 | 0.0043 |
| Nc1nc2c(Cc3ccncc3)c[nH]c2c(=O)[nH]1 | 0.0635 | 0.0254 | 0.0169 |
| N#CCC(c1cccnc1)c1cnc2c(O)[nH]cnc1-2 (centres undefined) | 0.0389 | – | – |
| Nc1nc2c(Cc3ccccc3O)c[nH]c2c(=O)[nH]1 | 0.182 | 0.084 | 0.0318 |
| Nc1nc(O)c2[nH]cc(C3=CCCCC3)c2n1 | 1.97 | 0.862 | 0.5 |
| Nc1nc(O)c2[nH]cc(Cc3ccc(O)cc3)c2n1 | 0.239 | 0.109 | 0.035 |
| Nc1nc2[nH]c(N)nc2c(=O)[nH]1 [8-AMINOGUANINE] | 2.3 | 0.982 | 0.681 |
| CC(C)c1ccc(Cc2c[nH]c3c(=O)[nH]c(N)nc23)cc1 | 0.0966 | – | – |
| Nc1nc2c(Cc3ccc(OCc4ccccc4)cc3)c[nH]c2c(=O)[nH]1 | 0.124 | 0.0378 | 0.0203 |
| Nc1nc(O)c2nc(N)n(Cc3cccs3)c2n1 | 0.0694 | 0.0357 | 0.0207 |
| Nc1nc2c(Cc3ccccn3)c[nH]c2c(=O)[nH]1 | 0.0153 | – | – |
| Nc1nc(O)c2[nH]cc(Oc3ccccc3)c2n1 | 0.0415 | – | – |
| Nc1nc(O)c2[nH]cc(Cc3ccsc3)c2n1 | 0.0226 | 0.0156 | 0.0035 |
| Nc1nc(O)c2[nH]cc(Cc3ccccc3Cl)c2n1 | 0.103 | 0.065 | 0.0144 |
| Oc1ncn(Cc2ccccc2)c2ncnc1-2 | 49.6 | 24.6 | – |
| Cc1nc2c(O)[nH]c(N)nc-2c1Cc1ccccc1 | 20.2 | 10.3 | 67.5 |
| Nc1nc2c(Cc3ccc(-c4ccccc4)cc3)c[nH]c2c(=O)[nH]1 | 0.546 | – | – |
| Nc1nc(O)c2[nH]cc(C(CC(=O)O)c3ccccc3)c2n1 (centres undefined) | 0.0468 | 0.009 | 0.061 |
